Patent US11021481B2, “Substituted isoindolin-1-ones and 2,3-dihydro-1h-pyrrolo[3,4-c]pyridin-1-ones as HPK1 antagonists” (Nimbus Saturn, Inc., priority 2019, dated 2021)
Counter-ions that a name gives are not always drawn.

What follows are compounds tested against HPK1 (Homo sapiens (Human), UniProt Q92918) (assay: HPK1 biochemical enzyme assay (microfluidic mobility shift assay)). Settings: 1.5 nM HPK1, ATP 1 mM final, 30 min preincubation, 60 min at RT, Caliper EZ Reader; read-out: HPK1 1000UMATP caliper IC50.
Outline: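 Ten-point compound titrations (top 3 μM final) preincubated 30 min with HPK1 and substrate, then reaction started with 1 mM ATP and 1 μM substrate, 5 mM MgCl2. After 60 min at RT, reaction terminated and product measured by microfluidic mobility shift.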

Chain of HPK1 (Q92918 whole entry): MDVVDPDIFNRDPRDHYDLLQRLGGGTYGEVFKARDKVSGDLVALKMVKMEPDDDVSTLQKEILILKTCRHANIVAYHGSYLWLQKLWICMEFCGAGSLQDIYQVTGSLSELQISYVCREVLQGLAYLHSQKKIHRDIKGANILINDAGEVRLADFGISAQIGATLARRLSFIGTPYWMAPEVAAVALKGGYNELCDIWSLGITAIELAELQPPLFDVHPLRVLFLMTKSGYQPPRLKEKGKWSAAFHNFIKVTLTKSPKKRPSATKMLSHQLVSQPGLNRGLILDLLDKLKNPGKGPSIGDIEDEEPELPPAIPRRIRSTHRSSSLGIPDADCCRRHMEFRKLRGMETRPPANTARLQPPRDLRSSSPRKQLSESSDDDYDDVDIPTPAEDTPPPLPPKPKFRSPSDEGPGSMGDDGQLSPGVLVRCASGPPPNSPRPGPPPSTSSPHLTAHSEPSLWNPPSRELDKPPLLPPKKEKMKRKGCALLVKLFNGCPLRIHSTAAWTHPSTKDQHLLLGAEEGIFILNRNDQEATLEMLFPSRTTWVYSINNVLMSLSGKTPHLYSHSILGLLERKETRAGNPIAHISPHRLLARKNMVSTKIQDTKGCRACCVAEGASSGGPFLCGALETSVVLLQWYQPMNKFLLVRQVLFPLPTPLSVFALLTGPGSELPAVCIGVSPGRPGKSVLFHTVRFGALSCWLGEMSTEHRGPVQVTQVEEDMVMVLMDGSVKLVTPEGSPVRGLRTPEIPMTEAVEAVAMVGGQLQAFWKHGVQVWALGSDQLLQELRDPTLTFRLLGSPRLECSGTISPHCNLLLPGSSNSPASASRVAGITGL

SMILES | IC50
Cc1ccn2c(-c3ccc(Nc4ccc(C(C)(C)C(=O)NCCN(C)C)cn4)c4c3CNC4=O)cnc2c1F [I-456, N-[2-(dimethylami-no)ethyl]-2-[6-[[7-(8-fluoro-7-methyl-imidazo[1,2-a]pyridin-3-yl)-3-oxo-isoindolin-4-yl]amino]-3-pyridyl]-2-methyl-propanamide] | < 100 nM
CC(C)(O)[C@@H]1CN(c2ccc(Nc3ccc(-c4cnc5cnccn45)c4c3C(=O)NC4)nc2)CCO1 [I-457, 7-[[5-[(2S)-2-(1-hydroxy-1-methyl-ethyl)morpholin-4-yl]-2-pyridyl]amino] 4-imidazo[1,2-a]pyrazin-3-yl-isoindolin-1-one] | < 100 nM
CC(C)(O)[C@H]1CN(c2ccc(Nc3cnc(-c4cnc5c(F)cccn45)c4c3C(=O)NC4)nc2)CCO1 [I-458, 4-(8-fluoroimidazo [1,2-a]pyridin-3-yl)-7-[[5-[(2R)-2-(1-hydroxy-1-methyl-ethyl)morpholin-4-yl]-2-pyridyl]amino]-2,3-dihydropyrrolo [3,4-c]pyridin-l-one] | < 100 nM
Cn1ccc2c(-c3ncc(Nc4ccc(N5CCO[C@@H](C(C)(C)O)C5)cn4)c4c3CNC4=O)ccnc21 [I-459] | < 100 nM
Cc1ccn2c(-c3ccc(Nc4ccc(N5CCO[C@@H](CO)C5)cn4)c4c3CNC4=O)cnc2c1F [I-460, 4-(8-fluoro-7-methyl-imidazo[1,2-a]pyridin-3-yl)-7-[[5-[(2R)-2-(hydroxymeth-yl)morpholin-4-yl]-2-pyridyl]amino] isoindolin-1-one] | < 100 nM
COc1cccn2c(-c3ncc(Nc4ccc(N5CCC[C@H](C(C)(C)O)C5)cn4)c4c3CNC4=O)cnc12 [I-461, 7-[[5-[(3S)-3-(1-hydroxy-1-methylethyl)-1-piperipyl]-2-pyridyl]amino]-4-(8-methoxyimi-dazo[1,2-a]pyridin-3-yl)-2,3-dihydro-pyrrolo[3,4-c]pyridin-1-one] | < 100 nM
CC(C)(O)[C@H]1CN(c2ccc(Nc3cnc(-c4cnc5c(Cl)cccn45)c4c3C(=O)NC4)nc2)CCO1 [I-462] | < 100 nM
Cc1ccn2c(-c3ccc(Nc4ccc(N5CCO[C@H](C(C)(C)O)C5)cn4)c4c3CNC4=O)cnc2c1F [I-463, 4-(8-fluoro-7-methyl-imidazol [1,2-a]pyridin-3-yl)-7-[[5-[(2S)-2-(1-hydroxy-1-methyl-ethyl)morpholin-4-yl]-2-pyridyl]amino]isoindolin-1-one] | < 100 nM
O=C1NCc2c(-c3cnn4ccccc34)ncc(Nc3ccc(N4CCC(O)CC4)cn3)c21 [I-464, 7-[[5-(4-hydroxy-1-piperidyl)-2-pyridyl]amino] 4-pyrazolo[1,5-a]pyridin-3-yl-2,3-dihydropyrrolo [3,4-c]pyridin-l-one] | < 100 nM
O=C1NCc2c(-c3cnn4cc(F)ccc34)ccc(Nc3ccc(N4CCC(O)CC4)cn3)c21 [I-465, 4-(6-fluoropyrazolo [1,5-a]pyridin-3-yl)-7-[[5-(4-hydroxy-1-piperidyl)-2-pyridyl]amino] isoindolin-1-one] | < 100 nM
Cc1ccn2c(-c3ncc(Nc4ccc(N5CCO[C@@H](C(C)(C)O)C5)cn4)c4c3CNC4=O)cnc2c1F [I-467, 4-(8-fluoro-7-methyl-imidazo[1,2-a]pyridin-3-yl)-7-[[5-[(2R)-2-(1-hydroxy-1-methyl-ethyl)morpholin-4-yl]-2-pyridyl]amino]-2,3-dihydropyrrolo [3,4-c]pyridin-l-one] | < 100 nM
Cc1ccn2c(-c3ccc(Nc4ccc(CN5CCOCC5)cn4)c4c3CNC4=O)cnc2c1F [I-468, 4-(8-fluoro-7-methyl-imidazo[1,2-a]pyridin-3-yl)-7-[[5-(morpholino-methyl)-2-pyridyl]amino] isoindolin-1-one] | < 100 nM
CC(C)(O)[C@H]1CN(c2ccc(Nc3cnc(-c4cnc5ccccn45)c4c3C(=O)NC4)nc2)CCO1 [I-470, 7-[[5-[(2R)-2-(1-hydroxy-1-methyl-ethyl)morpholin-4-yl]-2-pyridyl]amino]-4-imidazo[1,2-a]pyridin-3-yl-2,3-dihydropyrrolo [3,4-c]pyridin-1-one] | > 1000 nM
Cn1ccc2c(-c3ncc(Nc4ccc(N5CCO[C@H](C(C)(C)O)C5)cn4)c4c3CNC4=O)ccnc21 [I-471, 7-[[5-[(2S)-2-(1-hydroxy-1-methyl-ethyl)morpholin-4-yl]-2-pyridyl]amino]-4-(1-methylpyrrolo [2,3-b]pyridin-4-yl)-2,3-dihydropyrrolo [3,4-c]pyridin-1-one] | < 100 nM
Cn1ccc2c(-c3ncc(Nc4cccc(N5CCC6CNCC65)n4)c4c3CNC4=O)ccnc21 (stereo not drawn) [I-472, 7-[[6-(3,3a,4,5,6,6a-hexahydro-2H-pyrrolo[2,3-c]pyrrol-1-yl)-2-pyridyl]amino]-4-(1-methylpyrrolo [2,3-b]pyridin-4-yl)-2,3-dihydropyrrolo [3,4-c]pyridin-l-one] | < 100 nM
Cc1ccn2c(-c3ncc(Nc4ccc(N5CCO[C@H](C(C)(C)O)C5)cn4)c4c3CNC4=O)cnc2c1F [I-473, 4-(8-fluoro-7-methyl-imidazo[1,2-a]pyridin-3-yl)-7-[[5-[(2S)-2-(1-hydroxy-1-methyl-ethyl)morpholin-4-yl]-2-pyridyl]amino]-2,3-dihydropyrrolo [3,4-c]pyridin-1-one] | < 100 nM
CC(C)(O)[C@@H]1CN(c2ccc(Nc3ccc(-c4cnc5cccnn45)c4c3C(=O)NC4)nc2)CCO1 [I-474, 7-[[5-[(2S)-2-(1-hydroxy-1-methyl-ethyl)morpholin-4-yl]-2-pyridyl]amino]4-imidazo[1,2-b]pyridazin-3-yl-isoindolin-1-one] | < 100 nM
CC(C)(O)[C@@H]1CN(c2ccc(Nc3cnc(-c4cnc5c(C(F)F)cccn45)c4c3C(=O)NC4)nc2)CCO1 [I-475, 4-[8-(difluoromethyl)-imidazo[1,2-a]pyridin-3-yl]-7-[[5-[(2S)-2-(1-hydroxy-1-methyl-ethyl)morpholin-4-yl]-2-pyridyl]amino]-2,3-dihydropyrrolo [3,4-c]pyridin-1-one] | < 100 nM
O=C1NCc2c(-c3cnc4cc(F)ccn34)ccc(Nc3ccc(N4CCCC(N5CCOCC5)C4)cn3)c21 (stereo not drawn) [I-476, Formic acid salt 4-(7-fluoroimidazo [1,2-a]pyridin-3-yl)-7-[[5-(3-morpholino-1-piperidyl)-2-pyridyl]amino] isoindolin-1-one] | < 100 nM
O=C1NCc2c(-c3cnc4cc(F)ccn34)ccc(Nc3ccc(N4CCO[C@H](CNC5CC5)C4)cn3)c21 [I-477, 7-[[5-[(2R)-2-[(cyclopropylamino)methyl]morpholin-4-yl]-2-pyridyl]amino]-4-(7-fluoroimidazo [1,2-a]pyridin-3-yl)isoindolin-1-one] | < 100 nM
O=C1NCc2c(-c3cnc4cc(F)ccn34)ccc(Nc3ccc(N4CCO[C@H](CN5CC(F)C5)C4)cn3)c21 [I-482, 7-[[5-[(2R)-2-[(3-fluoroazetidin-1-yl)methyl]mor pholin-4-yl]-2-pyridyl]amino] 4-(7-fluoroimidazo [1,2-a]pyridin-3-yl)isoindolin-1-one] | < 100 nM
CC(C)(O)[C@@H]1CN(c2ccc(Nc3cnc(-c4cnc5c(F)cccn45)c4c3C(=O)NC4)nc2)CCO1 [I-483, 4-(8-fluoroimidazo [1,2-a]pyridin-3-yl)-7-[[5-[(2S)-2-(1-hydroxy-1-methyl-ethyl)morpholin-4-yl]-2-pyridyl]amino]-2,3-dihydropyrrolo [3,4-c]pyridin-1-one] | < 100 nM
Cn1ccc2c(-c3ncc(Nc4ccc(N5CCO[C@H](C(C)(C)O)C5)cn4)c4c3CNC4=O)cccc21 [I-484, 7-[[5-[(2S)-2-(1-hydroxy-1-methyl-ethyl)morpholin-4-yl]-2-pyridyl]amino]-4-(1-methylindol-4-yl)-2,3-dihydropyrrolo [3,4-c]pyridin-l-one] | < 100 nM
CC(C)(O)[C@@H]1CN(c2ccc(Nc3cnc(-c4cnc5ccccn45)c4c3C(=O)NC4)nc2)CCO1 [I-485, 7-[[5-[(2S)-2-(1-hydroxy-1-methyl-ethyl)morpholin-4-yl]-2-pyridyl]amino] 4-imidazo[1,2-a]pyridin-3-yl-2,3-dihydropyrrolo [3,4-c]pyridin-1-one] | < 100 nM
Cc1ccn2c(-c3ccc(Nc4ccc(N5CCO[C@@H](C(C)(C)O)C5)cn4)c4c3CNC4=O)cnc2c1F [I-487, 4-(8-fluoro-7-methyl-imidazo[1,2-a]pyridin-3-yl)-7-[[5-[(2R)-2-(1-hydroxy-1-methyl-ethyl)morpholin-4-yl]-2-pyridyl]amino]isoindolin-1-one] | < 100 nM
Cc1ccc2c(-c3ccc(Nc4ccc(N5CCO[C@H](C(C)(C)O)C5)cn4)c4c3CNC4=O)cnn2c1 [I-489, 7-[[5-[(2S)-2-(1-hydroxy-1-methylethyl)morpholin-4-yl]-2-pyripyl]amino]-4-(6-methylpyrazo-lo[1,5-a]pyridin-3-yl)isoindolin-1-one] | < 100 nM
Cc1ccn2c(-c3ccc(Nc4ccc(N5CCO[C@H](C(C)(C)O)C5)cn4)c4c3CNC4=O)cnc2c1 [I-490, 7-[[5-[(2S)-2-(1-hydroxy-1-methylethyl)morpholin-4-yl]-2-pyridyl]amino]-4-(7-methylimidazo [1,2-a]pyridin-3-yl)isoindolin-1-one] | < 100 nM
CN(CC1(O)CCCN(c2ccc(Nc3ccc(-c4cnc5cc(F)ccn45)c4c3C(=O)NC4)nc2)C1)C1CC1 (stereo not drawn) [I-491, 7-[[5-[3-[[cyclopropyl (methyl)amino]methyl]-3-hydroxy-1-piperidyl]-2-pyridyl]amino] 4-(7-fluoroimidazo [1,2-a]pyridin-3-yl)isoindolin-1-one] | < 100 nM
CC(C)(O)[C@@H]1CN(c2ccc(Nc3ccc(-c4cnc5cc(C(F)F)ccn45)c4c3C(=O)NC4)nc2)CCO1 [I-492, 4-[7-(difluoromethyl)-imidazo[1,2-a]pyridin-3-yl]-7-[[5-[(2S)-2-(1-hydroxy-1-methyl-ethyl)morpholin-4-yl]-2-pyridyl]amino]isoindolin-1-one] | < 100 nM
O=C1NCc2c(-c3cnc4cc(F)ccn34)ccc(Nc3cccc(N4CCC5CNCC54)n3)c21 (stereo not drawn) [I-493] | < 100 nM
